One test has as its system myotube formed cells. Kind of test: Lipid accumulation in myotube formed cells treated with hormone. The format is cell-based. To be noted: DMEM (phenol-red (−))/10% FBS, hormone for about 2 weeks; FIG. 5. The source says: Then, lipid accumulation levels of the cells were confirmed.
The subject of a further test is bovine MSCs. Briefly: MSC proliferation, cells enumerated with hematocytometer. The format is cell-based. To be noted: MSC in C-MS or CDFBS, 10 nM hormone, vs respective control. Here is the method:
The cultured cells were harvested by trypsin-EDTA, and subcultured in wells of 6-well plates with DMEM supplemented with FBS after washing the collected cell precipitate. Cells were cultured for a day in the supplemented medium to allow for equal attachment in the culture dish. The next day the medium was removed and replaced with DMEM supplemented with 10% FBS, MS, FS and C-MS.
MSCs were cultured in DMEM supplemented with C-MS to observe the steroidal effect on the cultured muscle cells. E2, testosterone, or a combination of E2 and testosterone (all 10 nM) were added directly to each medium. Cells were enumerated under microscopic examination using a hematocytometer.
For MSC differentiation, cells were collected from a primary culture dish and subcultured. The cells in passage one were cultured in medium supplemented with FBS, MS, FS, or […] for three days, and cell numbers in each culture were enumerated.
MSC were subcultured in C-MS or CDFBS and treated with 10 nM of E2 or testosterone, or a combination of E2 and testosterone.

For test [1], the system named is FAT/CD36. Kind of test: Real-time RT-PCR, FAT/CD36 mRNA in adipogenic medium. The format is cell-based, bovine. To be noted: adipogenic medium with C-MS, hormone-treated; FIG. 19. Here is the method: (§1) Trizor™ reagent (Invitrogen) was used to extract total RNA from cells, according to the manufacturer's protocol. RNA was […] in diethylpyrocarbonate-treated water at −80° C. Concentrations of the extracted RNA samples were measured using an ND-100 spectrophotometer (NanoDrop Technologies, Wilmington, Del., USA) and the purity was checked with an Agilent 2100 bioanalyzer (Agilent Technologies, Palo Alto, Calif., USA) prior to RT-PCR. RNA was reverse-transcribed into the first stranded cDNA using Superscript-II reverse transcriptase (Invitrogen). Total RNA (1 μg in 20 μl total volume) was primed with oligo (dT) 20 primers (Bioneer, Daejeon, Korea), and reverse transcription was carried out at 42° C. for 50 min and 72° C. for 15 min. Subsequently, 2 μl of the 10× diluted cDNA product and 10 pmoles of each gene-specific primer were used to perform PCR using a 7500 real-time PCR system (Applied Biosystems, Foster City, Calif., USA). Power SYBR® Green PCR Master Mix (Applied Biosystems) was used as the fluorescence source. Primers were designed with Primer 3 software (http://frodo.wi.mit.edu) using sequence information listed at the National Center for Biotechnology Information. […]

Test [2] relates to FAT/CD36. Kind of test: Immunocytochemistry, FAT/CD36 protein in adipogenic medium. The format is cell-based, bovine. To be noted: adipogenic medium with C-MS, hormone-treated; FIG. 20. Here is the method:
Isolated MSCs were cultured in a covered glass-bottom dish and allowed to differentiate into myotubes or to transdifferentiate into ALCs under different serum conditions. Then, the culture mediun was removed and cells were rinsed with PBS. PBS rinsing was also performed between all subsequent steps. Cells were fixed with 4% formaldehyde, permeabilized by 0.2% Triton X-100 and 3-4 drops of Image-iT™ FX signal enhancer (Invitrogen) was applied. Primary antibody (mouse monoclonal IgG1 Myogenin; sc-12732, rabbit polyclonal IgG CD36 sc-9154; Santa Cruz Biotechnology, Santa Cruz Calif., USA) was added and incubated at 4° C. in a humid environment overnight, and then incubated with secondary antibody (Alexa Fluor 488 goat anti-mouse SFX kit and Alexa Fluor 488 goat anti-rabbit SFX kit; Molecular Probes, Eugene, Oreg., USA) at room temperature for 1 hour. Each cell nucleus was counterstained by […] (DAPI; Sigma-Aldrich, St. Louis Mo., USA). Immunostained cells were observed using a fluorescence microscope (Nikon).
MSCs were transdifferentiated into ALCs by switching the culture medium into adipogenic medium. To observe the effect of different sera on transdifferentiation, cells were cultured in adipogenic media supplemented with different sera for 7 days and stained with ORO. […]

A further test concerns isolated MSCs. Briefly: Lipid droplets (ORO) in MSCs in adipogenic medium with C-MS plus hormone. The format is cell-based, bovine. To be noted: hormone-treated vs untreated, FIGS. 17 and 18.
For the next test, the system named is C2C12 myoblast cell line. Briefly: C2C12 myoblast proliferation. The format is cell-based. To be noted: testosterone-treated C-MS and CDFBS. The source says: In addition, the effect of different serum and steroids on the C2Cl2 myoblast cell line was also observed. The data generated were in agreement with those of bovine MSCs.
The next test deals with Myogenin. Kind of test: Real-time RT-PCR, myogenin mRNA. It is filed as cell-based, bovine. To be noted: hormone treatment, 10 nM, C-MS medium; FIG. 13. How it is done: as §1
In the next test the test system is AR. Briefly: Real-time RT-PCR, AR mRNA. The format is cell-based, bovine. To be noted: hormone treatment, 10 nM, C-MS medium; FIG. 13. Here is the method:
as §1
For orientation: Real-time PCR tracks product formation cycle by cycle.

Method for isolated MSCs: The cells were cultured in adiopogenic medium treated with E2, testosterone, or E2 and testosterone. The cells were stained with ORO to check the accumulation of lipid droplets.

Turning to `C[C@]12CC[C@@H]3c4ccc(O)cc4CC[C@H]3[C@@H]1CC[C@@H]2O` [E2, 17β-estradiol], in the test on myotube formed cells, the “lipid accumulation level in myotube” value was “highest in myotube of the cells treated with 17β-estradiol, and decreases in the following order of [17β-estradiol+testosterone], testosterone, and the control group that was not treated with hormone”. Besides, in the test with bovine MSCs, the “increment of cell proliferation” value was “highest in the testosterone-treated culture followed by the combination E2 and testosterone, and E2 only”. For the same molecule, in the test on FAT/CD36 [1], the “FAT/CD36 mRNA expression” value is “significant increase”. For the same molecule, in the test with FAT/CD36 [2], the FAT/CD36 protein expression result is recorded as “upregulated”. In the test with isolated MSCs, the “lipid droplets, ORO staining” value was “slight increase”.

As for `C[C@]12CC[C@H]3[C@@H](CCC4=CC(=O)CC[C@@]43C)[C@@H]1CC[C@@H]2O` [testosterone], the “lipid accumulation level in myotube” value in the test on myotube formed cells is “highest in myotube of the cells treated with 17β-estradiol, and decreases in the following order of [17β-estradiol+testosterone], testosterone, and the control group that was not treated with hormone”. In addition, in the test on bovine MSCs, the “increment of cell proliferation” value is “highest in the testosterone-treated culture followed by the combination E2 and testosterone, and E2 only”. Moreover, in the test with C2C12 myoblast cell line, the C2C12 cell proliferation result is on record as “markedly increased”. Further, in the test on Myogenin, the myogenin expression result was “up-regulated myogenin and AR expression significantly”. In addition, in the test on AR, the AR expression entry was “up-regulated myogenin and AR expression significantly”. Besides, in the test with isolated MSCs, the “lipid droplets, ORO staining” value was “slight increase”.

Source of the values: patent US20120028359A1, “PRODUCTION PROCESS OF GENDER-SPECIFIC SERUM AND BIOMARKER USING THE SERUM” (priority 2009, published 2012).
